Measured values taken from patent publication US11505525B2, “Branched discrete PEG constructs” (Quanta BioDesign, Ltd., priority 2011, dated 2022).

Legend:
[1] = test system: GLP-1 receptor; settings: cited from earlier work
[2] = test system: TAG-72; assay: Competition affinity assay of CC49-Fab′-branched dPEGs; format: binding; settings: Fab′-NEM defined as 1.0; single aliquots
Description: A competition assay was run with a series of CC49-Fab′-dPEGs. In this run, single aliquots of each compound were assayed. The affinity constant of Fab′-NEM is defined as 1.0. From the data, it is that clear that the Relative Affinity Constant, which is a measure of how well the Fab′ binds to its molecular target, is minimally impacted by conjugation to branched dPEG products.
A competition assay was run with a series of CC49-Fab′-branched dPEGs. In this run, single aliquots of each compound were assayed. The affinity constant of Fab′-NEM is defined as 1.0, and the binding constants of the branched dPEG conjugates are as follows: […]

[3] = test system: implanted tumors; assay: Fused CT/PET imaging of tumor-bearing nude mice with 124I-labelled CC49 Fab′ conjugates; format: in vivo
Description: Fused PET/CT images of mice were taken of different antibody conjugates to determine their ability to localize implanted tumors (see Examples below). In particular, CC49 Fab′-S-NEM control was compared to CC49 Fab′-dPEG12-Tris(dPEG24 carboxyl)3, the CC49 Fab′ MoAb modified with one of the disclosed branched dPEGs containing terminal carboxyl groups.
• 1. sterilized, de-pyrogenated glass reaction vessel coated with IODO-GEN™ (SOP 310.0) (5-10 ml serum vials or 13 mm×100 mm test tubes) • 2. sterile, pyrogen-free phosphate buffer, 0.1 M. pH 7.2 • 3. sterile, pyrogen-free phosphate buffered saline • 4. 1 Sephadex G-25M (PD-10 disposable) column with tip • 5. Iodine-124 medium concentration, high activity, sodium iodide for protein iodination in pH=9.5, concentration—100 mCi/ml (IBA Molecular, Dulles VA) • 6. protein to be radiolabeled • 7. 10 sterilized, de-pyrogenated glass test tubes—12×75 mm • 8. 1 sterile Millex-GV 0.22 micron, 13 mm low protein binding filter unit (Millipore—cat. no: SLGV0130S) • 9. microliter pipettes (Eppendorf) • 10. sterilized plastic tips for microliter pipette • 11. parafilm—2 cm.×2 cm. • 12. close calibrator • 13. fume hood • 14. dry and wet radioactive waste containers • 15. disposable gloves • 16. lead shielding and lead containers for reaction vessel and test tubes • 17.2-5 ml. sterile, pyrogen-free syringes with needles • 18.1-3.5 in. spinal needle. Procedure • (Note: the specific activity desired will determine the quantities of protein and Iodine-124 used below.) • I. Place the desired amount of protein into the IODO-GEN™ reaction vessel. • 2. Add the desired amount of iodine-124 into the IODO-GEN™ reaction vessel. • 3. Add 50 μl of 0.1M, 7.2 pH phosphate buffer solution to reaction vessel. • 4. Cover the reaction vessel with parafilm. • 5. Incubate reaction vessel for 20 minutes with occasional swirling. • 6. Place reaction vessel into dose calibrator to determine radioactivity added. • 7. Stop reaction by removing reaction mixture from reaction vessel and placing mixture onto gel bed of Sephadex G-25M column (this separates unbound Iodine-124). • 8. Allow mixture to elute through column. (Note: the iodinated protein is collected from the column after the void volume has been eluted—approximately 2 ml). • 9. Place 1 ml phosphate buffered saline onto gel bed of Sephadex G-25M column and allow to elute through column. • 10. Place 4 ml phosphate buffered saline onto gel bed of Sephadex G-25M column and allow to elute through column. (Note: begin to collect Iodinated protein if you have not done so already). • 11. Collect fractions of 10 drops of eluted iodinated protein—total of 10 fractions. • 12. Assay the 10 fractions using the dose calibrator. • 13. Collect the fractions, which have the highest radioactivity and pool them together in a sterile, pyrogen-free syringe. • 14. Assay syringe of the collected iodinated fractions. • 15. Filter radiolabeled protein using Millex-GV 0.22 micron low protein binding filter unit into a sterile pyrogen-free syringe. • 16. Assay syringe of the filtered radiolabeled protein. • 17. Remove a sample for quality assurance procedures. Description of Animals • a. Female nude mice background, 4-5 weeks in age, were used in this project. For every 7 animals injected with tumors, 4 will actually show tumors in the useful size range. • b. The nude mice will receive 6×10^6 cells subcutaneously in 0.1 mL volumes in order to initiate tumors. • c. Nude mice are received on a routine basis from commercial sources. The mouse colony is routinely surveyed for adventitious agents by serological and histopathological procedures. Upon arrival, the mice are conditioned for up to one week and then moved into an experimental protocol. • d. The anesthetized mice are injected subcutaneously or intradermally into the flank area. For this injection, the mouse is held by a fold in the skin at the back and a 25G needle inserted through the skin. […]

[4] = mouse, in vivo
Text: In a different study, PK data was taken on normal athymic mice injected with: mCC49 Fab′-dPEG12-Tris(dPEG12-Tris(m-dPEG11)3)3, mCC49 Fab′-dPEG12-Tris(dPEG24-acid)3, mCC49 Fab′-dPEG12-Tris(m-dPEG24)3, and mCC49 Fab′-dPEG12-Tris(dPEG12-acid)3.
PK data was taken with additional normal female athymic mice as follows: […]

Substance: 20 kD polymer PEG attached with two Exendin-4 molecules: "the 20 kD polymer PEG attached with two Exendin-4 molecules"; binding reduced approximately 67 times by the "shielding effect" of the linear PEG
- reduction of binding relative to bis-Exendin-4 without the polymeric PEG [1]: approximately 67 times

Substance: CC49 Fab′-S-MAL-dPEG12-Tris(-dPEG12-CO2H)3 [CC49 Fab′-dPEG12-Tris(dPEG12 acid)3 (B)]
- Relative Affinity Constant (Ka) [2]: 0.3

Substance: CC49 Fab′-S-MAL-dPEG12-Tris(-dPEG12-Tris(m-dPEG11)3)3
- Relative Affinity Constant (Ka) [2]: 0.4

Substance: CC49 Fab′-S-MAL-dPEG12-Tris(-dPEG24-CO2H)3 [CC49 Fab′-dPEG12-Tris(dPEG24 acid)3]
- fused CT/PET image: tumors and background ([3]; 5 hours post injection): good imaging of the tumors with some background evident
- fused CT/PET image: tumors and background ([3]; 24 hours post injection): the tumors were well imaged with continuing diminution of background
- fused CT/PET image: tumors and background ([3]; 48 hours post injection): virtually no background is evident
- fused CT/PET image: tumors and background ([3]; 72 hours post injection): virtually no background is evident

Substance: CC49 Fab′-S-MAL-dPEG12-Tris(m-dPEG24)3 [CC49 Fab′-dPEG12-Tris(m-dPEG24)3]
- fused CT/PET image: tumors and background ([3]; 24 hours post injection): little background
- fused CT/PET image: tumors and background ([3]; 72 hours post injection): little background

Substance: Lys^27 Exendin-4 linear polymeric PEG 0.5 kD: "the Lys^27 in the Exendin-4 is modified with linear polymeric PEGs of MW, 1, 2 and 5 kD"; approximately 37 times lower binding, printed "0.5 kD"
- binding of Lys^27-PEGylated Exendin-4, times lower [1]: ~37 times

Substance: Lys^27 Exendin-4 linear polymeric PEG 1 kD: "the Lys^27 in the Exendin-4 is modified with linear polymeric PEGs of MW, 1, 2 and 5 kD"; binding almost the same for 1 kD
- binding of Lys^27-PEGylated Exendin-4, times lower [1]: almost the same

Substance: Lys^27 Exendin-4 linear polymeric PEG 2 kD: "the Lys^27 in the Exendin-4 is modified with linear polymeric PEGs of MW, 1, 2 and 5 kD"; approximately 12 times lower binding
- binding of Lys^27-PEGylated Exendin-4, times lower [1]: approximately 12 times

Substance: m CC49 Fab′-dPEG12-Tris(dPEG12-Tris(m-dPEG11)3)3 [Fab-dPEG-D]
- clearance over time [4]: least rapid clearance

Substance: two Exendin-4 molecules: "two Exendin-4 molecules in a very congested branching format"; "the bis-Exendin-4 without the large polymeric PEG"
- increase in the binding ([1]; two Exendin-4 molecules in branching format): 3.5 times
